# Results reported in ChEMBL document CHEMBL5528008, “Design and synthesis of the first PARP-1 and proteasome dual inhibitors to treat breast cancer” (Eur J Med Chem, 2024).
# Molecular target: Poly [ADP-ribose] polymerase 1 (Homo sapiens, UniProt P09874)
# Assay: Inhibition of PARP-1 (unknown origin) using Femto-ECL as substrate preincubated for 2.7 hrs followed by substrate addition by chemiluminescence assay
# Conditions: not given
# Chain of Poly [ADP-ribose] polymerase 1 (P09874 whole entry): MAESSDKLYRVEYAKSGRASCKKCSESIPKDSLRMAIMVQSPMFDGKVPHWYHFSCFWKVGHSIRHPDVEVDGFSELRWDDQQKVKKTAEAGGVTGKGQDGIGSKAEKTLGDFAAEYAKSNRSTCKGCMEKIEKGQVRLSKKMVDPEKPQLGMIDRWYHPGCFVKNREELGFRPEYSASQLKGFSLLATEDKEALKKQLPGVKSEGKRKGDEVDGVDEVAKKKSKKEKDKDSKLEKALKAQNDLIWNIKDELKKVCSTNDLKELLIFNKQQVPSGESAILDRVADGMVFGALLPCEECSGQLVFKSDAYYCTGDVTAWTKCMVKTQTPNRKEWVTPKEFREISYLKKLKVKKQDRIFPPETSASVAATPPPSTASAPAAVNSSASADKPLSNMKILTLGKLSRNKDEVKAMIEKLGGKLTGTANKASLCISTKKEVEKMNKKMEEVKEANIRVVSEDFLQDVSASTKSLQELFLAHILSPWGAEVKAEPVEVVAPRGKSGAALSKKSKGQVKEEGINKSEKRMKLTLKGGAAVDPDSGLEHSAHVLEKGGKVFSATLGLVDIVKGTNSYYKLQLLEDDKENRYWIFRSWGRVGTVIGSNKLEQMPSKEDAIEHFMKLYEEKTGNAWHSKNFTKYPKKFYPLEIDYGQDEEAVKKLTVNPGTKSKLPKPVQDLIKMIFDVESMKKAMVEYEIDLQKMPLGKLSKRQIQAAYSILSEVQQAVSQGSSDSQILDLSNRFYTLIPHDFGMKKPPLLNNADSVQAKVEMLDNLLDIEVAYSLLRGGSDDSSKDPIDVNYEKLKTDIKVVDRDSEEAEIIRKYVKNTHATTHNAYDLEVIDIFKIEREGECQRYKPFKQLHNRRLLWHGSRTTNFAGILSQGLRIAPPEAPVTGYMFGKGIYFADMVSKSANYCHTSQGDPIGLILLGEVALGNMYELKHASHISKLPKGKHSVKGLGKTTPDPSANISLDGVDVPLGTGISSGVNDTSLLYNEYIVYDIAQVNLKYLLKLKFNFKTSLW
row,IC50 [nM],SMILES
1,173,Cc1c(Cc2ccc(F)c(C(=O)NCC(=O)N[C@@H](CC(C)C)B3O[C@@H]4C[C@@H]5C[C@@H](C5(C)C)[C@]4(C)O3)c2)n[nH]c(=O)c1C
2,> 1000,CC(C)C[C@H](NC(=O)CNC(=O)c1cc(Cc2ccc(=O)[nH]n2)ccc1F)B1O[C@@H]2C[C@@H]3C[C@@H](C3(C)C)[C@]2(C)O1
3,> 1000,Cc1c(Cc2ccc(F)c(C(=O)N[C@@H](Cc3ccccc3)C(=O)N[C@@H](CC(C)C)B3O[C@@H]4C[C@@H]5C[C@@H](C5(C)C)[C@]4(C)O3)c2)n[nH]c(=O)c1C
4,151,CC(C)C[C@H](NC(=O)[C@@H](NC(=O)c1cc(Cc2n[nH]c(=O)c3ccccc23)ccc1F)C(C)C)B1O[C@@H]2C[C@@H]3C[C@@H](C3(C)C)[C@]2(C)O1
5,118,CC(C)C[C@H](NC(=O)[C@H](C)NC(=O)c1cc(Cc2n[nH]c(=O)c3ccccc23)ccc1F)B1O[C@@H]2C[C@@H]3C[C@@H](C3(C)C)[C@]2(C)O1
6,273,CC(C)C[C@H](NC(=O)[C@@H](NC(=O)c1cc(Cc2n[nH]c(=O)c3ccccc23)ccc1F)[C@H](C)O)B1O[C@@H]2C[C@@H]3C[C@@H](C3(C)C)[C@]2(C)O1

# More lines, now with the values behind:
row,SMILES,IC50 [nM]
1,CC(C)C[C@H](NC(=O)[C@H](CCc1ccccc1)NC(=O)c1cc(Cc2n[nH]c(=O)c3ccccc23)ccc1F)B1O[C@@H]2C[C@@H]3C[C@@H](C3(C)C)[C@]2(C)O1,100
2,CC(C)C[C@H](NC(=O)[C@H](Cc1ccccc1)NC(=O)c1cc(Cc2n[nH]c(=O)c3ccccc23)ccc1F)B1O[C@@H]2C[C@@H]3C[C@@H](C3(C)C)[C@]2(C)O1,98
3,CC(C)C[C@H](NC(=O)[C@H](Cc1c[nH]c2ccccc12)NC(=O)c1cc(Cc2n[nH]c(=O)c3ccccc23)ccc1F)B(O)O,98
4,CC(C)C[C@H](NC(=O)CNC(=O)c1cc(Cc2n[nH]c(=O)c3ccccc23)ccc1F)B(O)O,4.1
5,CC(C)C[C@H](NC(=O)[C@H](Cc1ccccc1)NC(=O)c1cc(Cc2n[nH]c(=O)c3ccccc23)ccc1F)B(O)O,291

# Molecular target: 20S proteasome
# Assay: Inhibition of 20S proteasome (unknown origin) using […] as substrate
# Assay type: protein-complex assay, Homo sapiens
# Conditions: not given
row,IC50 [nM],SMILES
1,39.5,Cc1c(Cc2ccc(F)c(C(=O)NCC(=O)N[C@@H](CC(C)C)B3O[C@@H]4C[C@@H]5C[C@@H](C5(C)C)[C@]4(C)O3)c2)n[nH]c(=O)c1C
2,2150,CC(C)C[C@H](NC(=O)CNC(=O)c1cc(Cc2ccc(=O)[nH]n2)ccc1F)B1O[C@@H]2C[C@@H]3C[C@@H](C3(C)C)[C@]2(C)O1
3,98.3,CC(C)C[C@H](NC(=O)[C@@H](NC(=O)c1cc(Cc2n[nH]c(=O)c3ccccc23)ccc1F)C(C)C)B1O[C@@H]2C[C@@H]3C[C@@H](C3(C)C)[C@]2(C)O1
4,132,CC(C)C[C@H](NC(=O)[C@H](C)NC(=O)c1cc(Cc2n[nH]c(=O)c3ccccc23)ccc1F)B1O[C@@H]2C[C@@H]3C[C@@H](C3(C)C)[C@]2(C)O1
5,13.8,CC(C)C[C@H](NC(=O)[C@@H](NC(=O)c1cc(Cc2n[nH]c(=O)c3ccccc23)ccc1F)[C@H](C)O)B1O[C@@H]2C[C@@H]3C[C@@H](C3(C)C)[C@]2(C)O1

# More lines, now with the values behind:
row,SMILES,IC50 [nM]
1,CC(C)C[C@H](NC(=O)[C@H](CCc1ccccc1)NC(=O)c1cc(Cc2n[nH]c(=O)c3ccccc23)ccc1F)B1O[C@@H]2C[C@@H]3C[C@@H](C3(C)C)[C@]2(C)O1,34.5
2,CC(C)C[C@H](NC(=O)[C@H](Cc1ccccc1)NC(=O)c1cc(Cc2n[nH]c(=O)c3ccccc23)ccc1F)B1O[C@@H]2C[C@@H]3C[C@@H](C3(C)C)[C@]2(C)O1,24.7
3,CC(C)C[C@H](NC(=O)[C@H](Cc1c[nH]c2ccccc12)NC(=O)c1cc(Cc2n[nH]c(=O)c3ccccc23)ccc1F)B(O)O,56.1
4,CC(C)C[C@H](NC(=O)CNC(=O)c1cc(Cc2n[nH]c(=O)c3ccccc23)ccc1F)B(O)O,386
5,CC(C)C[C@H](NC(=O)[C@H](Cc1ccccc1)NC(=O)c1cc(Cc2n[nH]c(=O)c3ccccc23)ccc1F)B(O)O,87.8

# System: BT-549
# Assay: Cytotoxicity against human BT-549 cells assessed as inhibition of cell growth incubated for 72 hrs by MTT assay
# Assay type: functional, cell-based
# Conditions: BT-549, 72 h
row,SMILES,IC50 [nM]
1,CC(C)C[C@H](NC(=O)[C@H](CCc1ccccc1)NC(=O)c1cc(Cc2n[nH]c(=O)c3ccccc23)ccc1F)B1O[C@@H]2C[C@@H]3C[C@@H](C3(C)C)[C@]2(C)O1,294
2,CC(C)C[C@H](NC(=O)[C@H](Cc1ccccc1)NC(=O)c1cc(Cc2n[nH]c(=O)c3ccccc23)ccc1F)B1O[C@@H]2C[C@@H]3C[C@@H](C3(C)C)[C@]2(C)O1,84.9
3,CC(C)C[C@H](NC(=O)[C@@H](NC(=O)c1cc(Cc2n[nH]c(=O)c3ccccc23)ccc1F)C(C)C)B1O[C@@H]2C[C@@H]3C[C@@H](C3(C)C)[C@]2(C)O1,13.3
4,CC(C)C[C@H](NC(=O)[C@H](C)NC(=O)c1cc(Cc2n[nH]c(=O)c3ccccc23)ccc1F)B1O[C@@H]2C[C@@H]3C[C@@H](C3(C)C)[C@]2(C)O1,41
5,CC(C)C[C@H](NC(=O)[C@@H](NC(=O)c1cc(Cc2n[nH]c(=O)c3ccccc23)ccc1F)[C@H](C)O)B1O[C@@H]2C[C@@H]3C[C@@H](C3(C)C)[C@]2(C)O1,179

# System: MCF7
# Assay: Cytotoxicity against human MCF7 cells assessed as inhibition of cell growth incubated for 72 hrs by MTT assay
# Assay type: functional, cell-based
# Conditions: MCF7, 72 h
row,SMILES,IC50 [nM]
1,CC(C)C[C@H](NC(=O)[C@H](CCc1ccccc1)NC(=O)c1cc(Cc2n[nH]c(=O)c3ccccc23)ccc1F)B1O[C@@H]2C[C@@H]3C[C@@H](C3(C)C)[C@]2(C)O1,14.6
2,CC(C)C[C@H](NC(=O)[C@H](Cc1ccccc1)NC(=O)c1cc(Cc2n[nH]c(=O)c3ccccc23)ccc1F)B1O[C@@H]2C[C@@H]3C[C@@H](C3(C)C)[C@]2(C)O1,58.6
3,CC(C)C[C@H](NC(=O)[C@@H](NC(=O)c1cc(Cc2n[nH]c(=O)c3ccccc23)ccc1F)C(C)C)B1O[C@@H]2C[C@@H]3C[C@@H](C3(C)C)[C@]2(C)O1,174
4,CC(C)C[C@H](NC(=O)[C@H](C)NC(=O)c1cc(Cc2n[nH]c(=O)c3ccccc23)ccc1F)B1O[C@@H]2C[C@@H]3C[C@@H](C3(C)C)[C@]2(C)O1,20.8
5,CC(C)C[C@H](NC(=O)[C@@H](NC(=O)c1cc(Cc2n[nH]c(=O)c3ccccc23)ccc1F)[C@H](C)O)B1O[C@@H]2C[C@@H]3C[C@@H](C3(C)C)[C@]2(C)O1,493

# System: MDA-MB-231
# Assay: Cytotoxicity against human MDA-MB-231 cells assessed as inhibition of cell growth incubated for 72 hrs by MTT assay
# Assay type: functional, cell-based
# Conditions: MDA-MB-231, 72 h
row,SMILES,IC50 [nM]
1,CC(C)C[C@H](NC(=O)[C@H](CCc1ccccc1)NC(=O)c1cc(Cc2n[nH]c(=O)c3ccccc23)ccc1F)B1O[C@@H]2C[C@@H]3C[C@@H](C3(C)C)[C@]2(C)O1,29.5
2,CC(C)C[C@H](NC(=O)[C@H](Cc1ccccc1)NC(=O)c1cc(Cc2n[nH]c(=O)c3ccccc23)ccc1F)B1O[C@@H]2C[C@@H]3C[C@@H](C3(C)C)[C@]2(C)O1,63.6
3,CC(C)C[C@H](NC(=O)[C@@H](NC(=O)c1cc(Cc2n[nH]c(=O)c3ccccc23)ccc1F)C(C)C)B1O[C@@H]2C[C@@H]3C[C@@H](C3(C)C)[C@]2(C)O1,20.8
4,CC(C)C[C@H](NC(=O)[C@H](C)NC(=O)c1cc(Cc2n[nH]c(=O)c3ccccc23)ccc1F)B1O[C@@H]2C[C@@H]3C[C@@H](C3(C)C)[C@]2(C)O1,37
5,CC(C)C[C@H](NC(=O)[C@@H](NC(=O)c1cc(Cc2n[nH]c(=O)c3ccccc23)ccc1F)[C@H](C)O)B1O[C@@H]2C[C@@H]3C[C@@H](C3(C)C)[C@]2(C)O1,178
